Active and inactive are the calls of the source. The calls are words filed in the database; no cut-off is given here.
Columns and labels:
[1] = Chemical stability assessed as half life of hydrolysis in acidic buffer at pH 5.4; assay type: physicochemical
[2] = Chemical stability assessed as half life of hydrolysis in alkaline buffer at pH 8.3; assay type: physicochemical
[3] = Chemical stability assessed as half life of hydrolysis in physiological solution at pH 7.6; assay type: physicochemical
Periplaneta americana [4] = test: Insecticidal activity against american cockroach after 24 hrs; assay type: functional
Periplaneta americana [5] = test: Activity at nAch receptor in american cockroach neurons assessed as induction of inward current at 10 uM by whole-cell patch clamp method

Compound	half-life [1] [h]	half-life [2] [h]	half-life [3] [h]	MLD (Periplaneta americana [4])	Activity (Periplaneta americana [5])
Cc1oc(=O)oc1CN1CCN(Cc2cnc(Cl)s2)/C1=N\[N+](=O)[O-]	> 48	10.6	10.5	6.4 10^-8mol	Active
Cc1oc(=O)oc1CN1CCN(Cc2ccc(Cl)nc2)/C1=N\[N+](=O)[O-]	> 48	15.5	11.6	6.4 10^-8mol	Active

Source: ChEMBL document CHEMBL1149571, “Proinsecticide candidates N-(5-methyl-2-oxo-1,3-dioxol-4-yl)methyl derivatives of imidacloprid and 1-chlorothiazolylmethyl-2-nitroimino-imidazolidine” (Bioorg Med Chem Lett, 2007)
